From US8318746B2, “Nitrogen-containing five-membered heterocyclic compound” (Takeda Pharmaceutical Company Limited, priority 2007, dated 2012)

Columns and labels:
[1] = target: T1, GST-hLGK1 (GST added to the amino terminal of human liver GK) (Homo sapiens, UniProt P35557); assay: Measurement of GK activation value; type: biochemical; conditions: test compound final concentration 10 μmol/L; reaction rate divided by that of control group (50% DMSO without test compound); Mant-ATP substrate, D-glucose, 37° C., 60 min
T1 construct: with a BamHI site added to immediately before the initiation codon; made in house; host or cells: Escherichia coli BL21 (Stratagene), plasmid pGEX6P-2/hLGK1
T1 sequence (P35557 1-464 isoform P35557-3): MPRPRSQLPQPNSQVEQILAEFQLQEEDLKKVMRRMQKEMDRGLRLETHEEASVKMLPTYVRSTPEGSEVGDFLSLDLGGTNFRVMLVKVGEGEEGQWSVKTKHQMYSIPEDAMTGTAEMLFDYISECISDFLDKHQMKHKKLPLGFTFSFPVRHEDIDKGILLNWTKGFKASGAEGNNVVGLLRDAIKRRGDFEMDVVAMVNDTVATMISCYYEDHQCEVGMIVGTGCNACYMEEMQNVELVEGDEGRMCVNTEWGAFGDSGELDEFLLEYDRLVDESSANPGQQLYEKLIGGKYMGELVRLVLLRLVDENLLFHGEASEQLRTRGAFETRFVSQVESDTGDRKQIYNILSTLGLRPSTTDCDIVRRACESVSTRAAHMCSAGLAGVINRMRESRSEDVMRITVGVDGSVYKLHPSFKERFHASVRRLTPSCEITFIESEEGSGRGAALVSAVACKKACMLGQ
Description: To each well of a 384-well black plate (Nalge Nunc International K.K.) was added 5 μL of 50% dimethyl sulfoxide solution containing test compound diluted to 100 μmol/L. Then, GST-hLGK1 obtained in Reference Example 2A was diluted with measurement buffer (containing 50 mM HEPES (pH 7.4), 200 mM KCl, 5 mM MgCl2, 2.5 mM DTT and 50 μM 2′-(or-3′)—O—(N-methylanthraniloyl) adenosine 5′-triphosphate (Mant-ATP) (Jena BioScience)) to 6 μg/mL and 35 μL thereof was added to each well.
Each well was stood at 37° C. for 10 min, 25 mM D-glucose solution (10 μL) was added to start the reaction. The final concentration of the test compound was 10 μmol/L.
Each, well after the reaction was stood at 37° C. for 60 min, and the reaction was quenched by adding 25 μL of a quenching solution (containing 200 mM HEPES (pH 7.4), 20 mM MgCl2, 200 mM EDTA, 0.03% Triton-X 100, 0.3% Coating 3 reagent (Caliper Life Sciences, Inc.)).
2′-(or-3′)-O-(N-methylanthraniloyl)adenosine 5′-triphosphate (Mant-ATP, substrate) and Mant-ADP (reaction resultant product) were separated from each well after the reaction by a microchip type capillary electrophoresis apparatus 250 HTS (Caliper Life Sciences, Inc.). The reaction rate [(reaction resultant product peak height)/(reaction resultant product peak height+substrate peak height)×100(%)] was calculated from the ratio of the substrate peak height and reaction resultant product peak height obtained by fluorescence detection (excitation wavelength 355 nm, measurement wavelength 460 nm) and used as the index of GK activity.
As a control group, the reaction rate was calculated in the same manner as above except that “solution in 50% dimethyl sulfoxide (without test compound)” was used instead of “solution of test compound in 50% dimethyl sulfoxide”.
The reaction rate of the well (test compound addition group) added with the test compound was divided by the reaction rate of the control group and the obtained percentage was taken as the GK activation value (Emax) of the test compound.

| Compound | Emax at 10 µM [1] | melting point |
| --- | --- | --- |
| CS(=O)(=O)c1ccc(C(CC2CCCC2)c2ccc(-c3nccs3)[nH]2)cc1 (centres unmarked) [Example 1, 2-(5-{2-cyclopentyl-1-[4-(methylsulfonyl)phenyl]ethyl}-1H-pyrrol-2-yl)-1,3-thiazole] | 195% | – |
| CS(=O)(=O)c1ccc(C(CC2CCCC2)c2ccc(-c3ccccn3)[nH]2)cc1 (centres unmarked) [Example 2, 2-(5-{2-cyclopentyl-1-[4-(methylsulfonyl)phenyl]ethyl}-1H-pyrrol-2-yl)pyridine] | 168% | – |
| CS(=O)(=O)c1ccc(C(CC2CCCC2)c2ccc(-c3cnccn3)[nH]2)cc1 (centres unmarked) [Example 3, 2-(5-{2-cyclopentyl-1-[4-(methylsulfonyl)phenyl]ethyl}-1H-pyrrol-2-yl)pyrazine] | 180% | – |
| Cn1ccnc1-c1ccc(C(CC2CCCC2)c2ccc(S(C)(=O)=O)cc2)[nH]1 (centres unmarked) [Example 4, 2-(5-{2-cyclopentyl-1-[4-(methylsulfonyl)phenyl]ethyl}-1H-pyrrol-2-yl)-1-methyl-1H-imidazole] | 227% | – |
| Cn1cnc(-c2ccc(C(CC3CCCC3)c3ccc(S(C)(=O)=O)cc3)[nH]2)c1 (centres unmarked) [Example 5, 4-(5-{2-cyclopentyl-1-[4-(methylsulfonyl)phenyl]ethyl}-1H-pyrrol-2-yl)-1-methyl-1H-imidazole] | 167% | – |
| Cn1ccc(-c2ccc(C(CC3CCCC3)c3ccc(S(C)(=O)=O)cc3)[nH]2)n1 (centres unmarked) [Example 6, 3-(5-{2-cyclopentyl-1-[4-(methylsulfonyl)phenyl]ethyl}-1H-pyrrol-2-yl)-1-methyl-1H-pyrazole] | 198% | – |
| O=S(=O)(c1ccc(C(CC2CCOCC2)c2ccc(-c3nccs3)[nH]2)cc1)C1CC1 (centres unmarked) [Example 7, 2-{5-[1-[4-(cyclopropylsulfonyl)phenyl]-2-(tetrahydro-2H-pyran-4-yl)ethyl]-1H-pyrrol-2-yl}-1,3-thiazole] | 179% | – |
| CCOC(=O)c1[nH]c(C(CC2CCCC2)c2ccc(S(C)(=O)=O)cc2)cc1C (centres unmarked) [Example 8, Ethyl 5-{2-cyclopentyl-1-[4-(methylsulfonyl)phenyl]ethyl}-3-methyl-1H-pyrrole-2-carboxylate] | 225% | – |
| Cc1cc(C(CC2CCCC2)c2ccc(S(C)(=O)=O)cc2)[nH]c1C(=O)O (centres unmarked) [Example 9, 5-{2-cyclopentyl-1-[4-(methylsulfonyl)phenyl]ethyl}-3-methyl-1H-pyrrole-2-carboxylic acid] | 173% | – |
| Cc1cc(C(CC2CCCC2)c2ccc(S(C)(=O)=O)cc2)[nH]c1C(N)=O (centres unmarked) [Example 10, 5-{2-cyclopentyl-1-[4-(methylsulfonyl)phenyl]ethyl}-3-methyl-1H-pyrrole-2-carboxamide] | 193% | – |
| Cc1cc(C(CC2CCCC2)c2ccc(S(C)(=O)=O)cc2)[nH]c1-c1nccs1 (centres unmarked) [Example 11, 2-(5-{2-cyclopentyl-1-[4-(methylsulfonyl)phenyl]ethyl}-3-methyl-1H-pyrrol-2-yl)-1,3-thiazole] | 160% | – |
| CC(C)C(=O)c1[nH]c(C(CC2CCCC2)c2ccc(S(C)(=O)=O)cc2)nc1F (centres unmarked) [Example 14, 1-(2-{2-cyclopentyl-1-[4-(methylsulfonyl)phenyl]ethyl}-4-fluoro-1H-imidazol-5-yl)-2-methylpropan-1-one] | 185% | – |
| CCCC(=O)c1[nH]c(C(CC2CCCC2)c2ccc(S(C)(=O)=O)cc2)nc1F (centres unmarked) [Example 17, 1-(2-{2-cyclopentyl-1-[4-(methylsulfonyl)phenyl]ethyl}-4-fluoro-1H-imidazol-5-yl)butan-1-one] | 188% | – |
| CS(=O)(=O)c1ccc(C(CC2CCCC2)c2ncc(C(=O)C3CCC3)[nH]2)cc1 (centres unmarked) [Example 21, Cyclobutyl(2-{2-cyclopentyl-1-[4-(methylsulfonyl)phenyl]ethyl}-1H-imidazol-5-yl)methanone] | 157% | – |
| O=C(c1[nH]c(C(CC2CCCC2)c2ccc(S(=O)(=O)C3CC3)cc2)nc1F)C1CC1 (centres unmarked) [Example 24, (2-{2-cyclopentyl-1-[4-(cyclopropylsulfonyl)phenyl]ethyl}-4-fluoro-1H-imidazol-5-yl)(cyclopropyl)methanone] | 190% | – |
| O=C1CC[C@H](CC(c2ccc(S(=O)(=O)C3CC3)cc2)c2nc(F)c(C(=O)C3CCC3)[nH]2)C1 (stereo partly drawn) [Example 29, (3R)-3-{2-[5-(cyclobutylcarbonyl)-4-fluoro-1H-imidazol-2-yl]-2-[4-(cyclopropylsulfonyl)phenyl]ethyl}cyclopentanone] | 218% | – |
| O=S(=O)(c1ccc(C(CC2CCOCC2)c2ccc(-c3ncc(C(O)CO)s3)[nH]2)cc1)C1CC1 (centres unmarked) [Example 34, 1-[2-(5-{1-[4-(cyclopropylsulfonyl)phenyl]-2-(tetrahydro-2H-pyran-4-yl)ethyl}-1H-pyrrol-2-yl)-1,3-thiazol-5-yl]ethane-1,2-diol] | 178% | – |
| CC(O)c1cnc(-c2ccc(C(CC3CCOCC3)c3ccc(S(=O)(=O)C4CC4)cc3)[nH]2)s1 (centres unmarked) [Example 166, Optically Active Form of 1-[2-(5-{1-[4-(cyclopropylsulfonyl)phenyl]-2-(tetrahydro-2H-pyran-4-yl)ethyl}-1H-pyrrol-2-yl)-1,3-thiazol-5-yl]ethanol] | – | 105 to 106 °C |

The next lines start with the values.

| Emax at 10 µM [1] | melting point | Compound |
| --- | --- | --- |
| – | 112 to 114 °C | CC(O)c1cnc(-c2ccc(C(CC3CCOCC3)c3ccc(S(=O)(=O)C4CC4)cc3)[nH]2)s1 (centres unmarked) [Example 167, Optically Active form of 1-[2-(5-{1-[4-(cyclopropylsulfonyl)phenyl]-2-(tetrahydro-2H-pyran-4-yl)ethyl}-1H-pyrrol-2-yl)-1,3-thiazol-5-yl]ethanol] |
| – | 115 to 116 °C | CC(O)c1cnc(-c2ccc(C(CC3CCOCC3)c3ccc(S(=O)(=O)C4CC4)cc3)[nH]2)s1 (centres unmarked) [Example 168, Optically Active Form of 1-[2-(5-{1-[4-(cyclopropylsulfonyl)phenyl]-2-(tetrahydro-2H-pyran-4-yl)ethyl}-1H-pyrrol-2-yl)-1,3-thiazol-5-yl]ethanol] |
| – | 120 to 122 °C | COC(=O)Nc1cc(-c2nccs2)[nH]c1C(CC1CCOCC1)c1ccc(S(=O)(=O)C2CC2)cc1 (centres unmarked) [Example 181, Methyl [2-{1-[4-(cyclopropylsulfonyl)phenyl]-2-(tetrahydro-2H-pyran-4-yl)ethyl}-5-(1,3-thiazol-2-yl)-1H-pyrrol-3-yl]carbamate] |
| – | 106 to 109 °C | CS(=O)(=O)c1ccc(C(CC2CCOCC2)c2cnc(-c3ccccn3)[nH]2)cc1Cl (centres unmarked) [Example 183, 2-(5-{1-[3-chloro-4-(methylsulfonyl)phenyl]-2-(tetrahydro-2H-pyran-4-yl)ethyl}-1H-imidazol-2-yl)pyridine] |
| – | 208.5 to 208.6 °C | O=S(=O)(c1ccc(C(CC2CCOCC2)c2ccc(-c3nnc(CO)s3)[nH]2)cc1)C1CC1 (centres unmarked) [Example 206, [5-(5-{1-[4-(cyclopropylsulfonyl)phenyl]-2-(tetrahydro-2H-pyran-4-yl)ethyl}-1H-pyrrol-2-yl)-1,3,4-thiadiazol-2-yl]methanol] |
| – | 196 to 197 °C | CC(C)(O)C(O)c1ccc(-c2ccc(/C(=C/C3CCOCC3)c3ccc(S(=O)(=O)C4CC4)cc3)[nH]2)nc1 (centres unmarked) [Example 220, 1-(6-{5-[(E)-1-[4-(cyclopropylsulfonyl)phenyl]-2-(tetrahydro-2H-pyran-4-yl)ethenyl]-1H-pyrrol-2-yl}pyridin-3-yl)-2-methylpropane-1,2-diol] |
| – | 199 to 201 °C | CS(=O)(=O)c1ccc(C(CC2CCOCC2)c2ccc(-c3nnc(CO)s3)[nH]2)cc1 (centres unmarked) [Example 221, [5-(5-{1-[4-(methylsulfonyl)phenyl]-2-(tetrahydro-2H-pyran-4-yl)ethyl}-1H-pyrrol-2-yl)-1,3,4-thiadiazol-2-yl]methanol] |
| – | 135 to 136 °C | CC(CC1CCOCC1)(c1ccc(S(C)(=O)=O)cn1)c1ccc(-c2ccccn2)[nH]1 (centres unmarked) [Example 245, 2-[1-methyl-1-(5-(pyridin-2-yl)-1H-pyrrol-2-yl)-2-(tetrahydro-2H-pyran-4-yl)ethyl]-5-(methylsulfonyl)pyridine] |
